According to ChEMBL document CHEMBL1201862, “PubChem BioAssay data set” (2004):
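96-well plates; 48 h exposure; 5 concentrations. Endpoints by linear interpolation between flanking doses. Not reached: highest tested concentration assigned. At the GI50, growth is halved.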 Active and inactive are the calls of the source. No stated cut-off is given here; in the data, active = GI50 up to about 1.1 µM and inactive = higher.

How the values were obtained:
Experiment in all cases: NCI-60 cell line screen, 48 h
A498 = system: A498
ACHN = system: ACHN
CAKI-1 = system: CAKI-1
DMS-114 = system: DMS-114
HCC 2998 = system: HCC 2998
HOP-62 = system: HOP-62
NCI-H522 = system: NCI-H522
OVCAR-4 = system: OVCAR-4
RXF 393 = system: RXF 393
SF-295 = system: SF-295
SK-MEL-5 = system: SK-MEL-5
SNB-19 = system: SNB-19
786-0 = system: 786-0
COLO 205 = system: COLO 205
DMS-273 = system: DMS-273
EKVX = system: EKVX
UACC-62 = system: UACC-62
UO-31 = system: UO-31
Hs-578T = system: Hs-578T
PC-3 = system: PC-3

Row | SMILES | GI50 (A498) | GI50 (ACHN) | GI50 (CAKI-1) | GI50 (DMS-114) | GI50 (HCC 2998) | GI50 (HOP-62) | GI50 (NCI-H522) | GI50 (OVCAR-4) | GI50 (RXF 393) | GI50 (SF-295) | GI50 (SK-MEL-5) | GI50 (SNB-19) | GI50 (786-0) | GI50 (COLO 205) | GI50 (DMS-273) | GI50 (EKVX) | GI50 (UACC-62) | GI50 (UO-31) | GI50 (Hs-578T) | GI50 (PC-3)
1 | N#CC1=C(c2ccccc2)NNC(c2ccc(Cl)cc2)CC1=O (centres undefined) | 68.7 µM (inactive) | 49.2 µM (inactive) | 40.6 µM (inactive) | 82.2 µM (inactive) | 56.6 µM (inactive) | 23.3 µM (inactive) | 20.4 µM (inactive) | 42.9 µM (inactive) | 54.2 µM (inactive) | 24.6 µM (inactive) | 20.9 µM (inactive) | 53.2 µM (inactive) | – | – | – | – | – | – | – | –
2 | OC12CCC3(O)c4ccccc4C3C1c1ccccc12 (centres undefined) | – | > 100 µM (inactive) | – | – | – | > 100 µM (inactive) | > 100 µM (inactive) | > 100 µM (inactive) | > 100 µM (inactive) | > 100 µM (inactive) | > 100 µM (inactive) | > 100 µM (inactive) | > 100 µM (inactive) | > 100 µM (inactive) | > 100 µM (inactive) | > 100 µM (inactive) | > 100 µM (inactive) | > 100 µM (inactive) | – | –
3 | C/C(=N/NC(=S)N1CCCCCC1)c1ccccc1O | 23.8 µM (inactive) | 2.65 µM (inactive) | 8.05 µM (inactive) | – | 7.4 µM (inactive) | 1.99 µM (inactive) | 1.49 µM (inactive) | 6.98 µM (inactive) | 51.5 µM (inactive) | 4.8 µM (inactive) | 4.05 µM (inactive) | 42.2 µM (inactive) | 1.89 µM (inactive) | 7.98 µM (inactive) | – | 14.9 µM (inactive) | 3.05 µM (inactive) | 2.62 µM (inactive) | > 100 µM (inactive) | 6.7 µM (inactive)
4 | CCCCc1ccc(Nc2cc(=O)n(C)c(=O)[nH]2)cc1 | > 100 µM (inactive) | > 100 µM (inactive) | > 100 µM (inactive) | – | > 100 µM (inactive) | > 100 µM (inactive) | > 100 µM (inactive) | 32.8 µM (inactive) | > 100 µM (inactive) | > 100 µM (inactive) | > 100 µM (inactive) | 52.1 µM (inactive) | > 100 µM (inactive) | > 100 µM (inactive) | – | > 100 µM (inactive) | > 100 µM (inactive) | > 100 µM (inactive) | > 100 µM (inactive) | 91.2 µM (inactive)
5 | C=C1C(=O)OC2CC1C(O)C/C(C)=C/CC/C(C)=C/C(O)CC2C (centres undefined) | 3.24 µM (inactive) | 1.65 µM (inactive) | 2.75 µM (inactive) | – | 1.83 µM (inactive) | 11.4 µM (inactive) | 0.216 µM (active) | 2.45 µM (inactive) | 1.01 µM (active) | 13.3 µM (inactive) | 4.19 µM (inactive) | 5.47 µM (inactive) | 1.53 µM (inactive) | 1.49 µM (inactive) | – | 1.87 µM (inactive) | 2.34 µM (inactive) | 2.33 µM (inactive) | 3.03 µM (inactive) | 3.11 µM (inactive)
6 | O=C(O)CSc1ccc(N=C=S)cc1 | 52.2 µM (inactive) | > 100 µM (inactive) | > 100 µM (inactive) | – | 31.1 µM (inactive) | 54.1 µM (inactive) | 19.1 µM (inactive) | > 100 µM (inactive) | 28.4 µM (inactive) | 89.3 µM (inactive) | 37.8 µM (inactive) | > 100 µM (inactive) | 82.6 µM (inactive) | 53.2 µM (inactive) | – | > 100 µM (inactive) | 61 µM (inactive) | > 100 µM (inactive) | 47.5 µM (inactive) | 73.3 µM (inactive)
7 | O=C1C=CC(=O)c2c1ccc1c3ccccc3n(CCCCCn3c4ccccc4c4ccc5c(c43)C(=O)C=CC5=O)c21 | 54.5 µM (inactive) | 15.3 µM (inactive) | 6.98 µM (inactive) | – | 33 µM (inactive) | > 91.4 µM (inactive) | 2.02 µM (inactive) | > 10 µM (inactive) | 5.68 µM (inactive) | > 100 µM (inactive) | 32.4 µM (inactive) | 41.2 µM (inactive) | 6.87 µM (inactive) | 15.2 µM (inactive) | – | 33.3 µM (inactive) | 25.7 µM (inactive) | 7.87 µM (inactive) | 21.2 µM (inactive) | 17.1 µM (inactive)
8 | CN(C)[C@@H]1C(O)=C(C(=O)NCN2CCN(C(=N)NC(=N)N)CC2)C(=O)[C@@]2(O)C(O)=C3C(=O)c4c(O)cccc4[C@@](C)(O)[C@H]3C[C@@H]12 | 1.14 µM (inactive) | 0.306 µM (active) | 0.274 µM (active) | – | 0.337 µM (active) | 1.14 µM (inactive) | 0.0329 µM (active) | – | 0.12 µM (active) | 0.506 µM (active) | 0.183 µM (active) | 0.314 µM (active) | – | 0.0798 µM (active) | 0.252 µM (active) | 0.286 µM (active) | 0.172 µM (active) | 0.301 µM (active) | – | –
9 | CC(=O)Oc1c(-c2ccccc2)oc2ccccc12 | 2.96 µM (inactive) | 1.79 µM (inactive) | 1.11 µM (active) | – | 1.31 µM (inactive) | 2.42 µM (inactive) | 2.3 µM (inactive) | 3.19 µM (inactive) | 1.42 µM (inactive) | 0.946 µM (active) | 1.35 µM (inactive) | 1.53 µM (inactive) | 4.02 µM (inactive) | 1.9 µM (inactive) | – | 2.06 µM (inactive) | 3.13 µM (inactive) | 1.61 µM (inactive) | 2.36 µM (inactive) | 1.53 µM (inactive)
10 | N#Cc1ccc(C2NN=CC23C(=O)c2ccccc2OC3c2ccccc2)cc1 (centres undefined) | 26.9 µM (inactive) | 34.7 µM (inactive) | 34 µM (inactive) | – | 35.7 µM (inactive) | 54.6 µM (inactive) | 24.2 µM (inactive) | 33.8 µM (inactive) | 15 µM (inactive) | 34.4 µM (inactive) | 23.7 µM (inactive) | 27.6 µM (inactive) | 32.1 µM (inactive) | 18.8 µM (inactive) | – | 21.1 µM (inactive) | 26.7 µM (inactive) | 19.2 µM (inactive) | 30.5 µM (inactive) | 29.7 µM (inactive)
11 | COC(=O)C1CC(C=[N+](C)C)=C(SC)N1 (centres undefined) | > 100 µM (inactive) | > 100 µM (inactive) | > 100 µM (inactive) | – | > 100 µM (inactive) | > 100 µM (inactive) | > 100 µM (inactive) | > 100 µM (inactive) | > 100 µM (inactive) | > 100 µM (inactive) | > 100 µM (inactive) | > 100 µM (inactive) | > 100 µM (inactive) | > 100 µM (inactive) | – | > 100 µM (inactive) | > 100 µM (inactive) | > 100 µM (inactive) | > 100 µM (inactive) | > 100 µM (inactive)
12 | CC(C)CC1C(=O)OC(C)(C)OC1=O | > 100 µM (inactive) | > 100 µM (inactive) | > 100 µM (inactive) | – | > 100 µM (inactive) | > 100 µM (inactive) | > 100 µM (inactive) | > 100 µM (inactive) | > 100 µM (inactive) | > 100 µM (inactive) | > 100 µM (inactive) | > 100 µM (inactive) | > 100 µM (inactive) | > 100 µM (inactive) | – | > 100 µM (inactive) | > 100 µM (inactive) | > 100 µM (inactive) | > 100 µM (inactive) | > 100 µM (inactive)
13 | N#COc1ccc(Oc2ccc(OC#N)cc2)cc1 | > 100 µM (inactive) | 35.5 µM (inactive) | > 100 µM (inactive) | 32.1 µM (inactive) | > 100 µM (inactive) | > 100 µM (inactive) | 43.4 µM (inactive) | > 100 µM (inactive) | > 100 µM (inactive) | 98.4 µM (inactive) | > 100 µM (inactive) | > 100 µM (inactive) | 39.1 µM (inactive) | 22.4 µM (inactive) | – | > 100 µM (inactive) | 47.1 µM (inactive) | 89.7 µM (inactive) | – | –
14 | Cc1cccc(C)c1/N=N/c1ccc(O)c(CN(C)C)c1 | 35.6 µM (inactive) | 36.2 µM (inactive) | 79.4 µM (inactive) | – | 19.9 µM (inactive) | 51.6 µM (inactive) | 42.6 µM (inactive) | 47.9 µM (inactive) | 0.716 µM (active) | 71.6 µM (inactive) | 11.7 µM (inactive) | > 100 µM (inactive) | 43.9 µM (inactive) | 22.3 µM (inactive) | – | > 100 µM (inactive) | 26.7 µM (inactive) | 15.6 µM (inactive) | 30.8 µM (inactive) | 62.8 µM (inactive)
15 | Nc1c(-c2nc3ccccc3o2)sc(=S)n1-c1ccc(Cl)cc1 | 37.7 µM (inactive) | 9.1 µM (inactive) | 12.6 µM (inactive) | – | 1.27 µM (inactive) | 5.11 µM (inactive) | 14 µM (inactive) | 11 µM (inactive) | 23 µM (inactive) | 10.6 µM (inactive) | 17.2 µM (inactive) | 13.7 µM (inactive) | 8.57 µM (inactive) | 17.1 µM (inactive) | – | 12.6 µM (inactive) | 0.452 µM (active) | 29.4 µM (inactive) | 12.8 µM (inactive) | 21.7 µM (inactive)
16 | COc1ccc(C(=O)NCCC2CN(S(=O)(=O)C(F)(F)F)c3ccccc32)c(OC)c1 (centres undefined) | > 100 µM (inactive) | 33.2 µM (inactive) | > 100 µM (inactive) | – | 60.4 µM (inactive) | 88.5 µM (inactive) | 19.3 µM (inactive) | 69.3 µM (inactive) | > 100 µM (inactive) | 68.9 µM (inactive) | 15.2 µM (inactive) | 54.5 µM (inactive) | 53 µM (inactive) | 34.5 µM (inactive) | – | 39 µM (inactive) | 26.9 µM (inactive) | 43 µM (inactive) | 33.1 µM (inactive) | 36 µM (inactive)
